Source: patent publication US7183287B2, “Substituted pyrimidinones” (Pharmacia Corporation, priority 2003, dated 2007)
pIC50: −log10 of the molar value.

molecular target: T1, human p38 kinase alpha (Homo sapiens, UniProt Q16539); assay: p38 kinase alpha in vitro assay (phosphorylation of PHAS-I with 32P-ATP or of EGFRP with 33P-ATP); assay type: biochemical
T1 construct: The coding region of the human p38a cDNA is obtained by PCR-amplification from RNA isolated from the human monocyte cell line THP.1; made in house; host or cells: E. coli DH10B (plasmid pMON 35802, pGEX 2T)
T1 sequence (Q16539 whole entry): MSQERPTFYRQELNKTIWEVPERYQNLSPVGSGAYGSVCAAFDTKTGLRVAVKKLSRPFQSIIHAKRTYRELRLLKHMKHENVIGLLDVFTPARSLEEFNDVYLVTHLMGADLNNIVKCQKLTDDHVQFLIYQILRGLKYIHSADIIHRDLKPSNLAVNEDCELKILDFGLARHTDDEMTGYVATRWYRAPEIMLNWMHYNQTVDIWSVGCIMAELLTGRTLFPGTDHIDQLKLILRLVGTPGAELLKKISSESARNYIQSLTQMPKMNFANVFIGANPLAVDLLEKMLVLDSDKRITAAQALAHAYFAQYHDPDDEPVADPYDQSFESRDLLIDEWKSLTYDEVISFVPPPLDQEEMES
Protocol: The ability of compounds to inhibit human p38 kinase alpha is evaluated using two in vitro assay methods. In the first method, activated human p38 kinase alpha phosphorylates a biotinylated substrate, PHAS-I (phosphorylated heat and acid stable protein-insulin inducible), in the presence of gamma ^32P-ATP (^32P-ATP). PHAS-I is biotinylated prior to the assay and provides a means of capturing the substrate, which is phosphorylated during the assay. p38 Kinase is activated by MKK6. Compounds were tested in 10 fold serial dilutions over the range of 100 μM to 0.001 μM using 1% DMSO. Each concentration of inhibitor is tested in triplicate.
All reactions are carried out in 96 well polypropylene plates. Each reaction well contains 25 mM HEPES pH 7.5, 10 mM magnesium acetate and 50 μM unlabeled ATP. Activation of p38 is required to achieve sufficient signal in the assay. Biotinylated PHAS-I is used at 1–2 μg per 50 μl reaction volume, with a final concentration of 1.5 μM. Activated human p38 kinase alpha is used at 1 μg per 50 μl reaction volume representing a final concentration of 0.3 μM. Gamma ^32P-ATP is used to follow the phosphorylation of PHAS-I. ^32P-ATP has a specific activity of 3000 Ci/mmol and is used at 1.2 μCi per 50 μl reaction volume. The reaction proceeds either for one hour or overnight at 30° C.
Following incubation, 20 μl of reaction mixture is transferred to a high capacity streptavidin coated filter plate (SAM-streptavidin-matrix, Promega) prewetted with phosphate buffered saline. […] The plates are sealed and counted.
A second assay format is also employed that is based on p38 kinase alpha induced phosphorylation of EGFRP (epidermal growth factor receptor peptide, a 21 mer) in the presence ^33P-ATP. […] Compounds were evaluated in 50 μl reaction volumes in the presence of 25 mM Hepes pH 7.5, 10 mM magnesium acetate, 4% glycerol, 0.4% bovine serum albumin, 0.4 mM DTT, 50 μM unlabeled ATP, 25 μg EGFRP (200 μM), and 0.05 μCi ^33P-ATP. […] 150 μl of Microscint 40 is then added to each well of the Microlite plate, and the plate is sealed, mixed, and counted.

pIC50, > 5.30:
O=c1c(Br)c(OCc2ccccc2)ncn1Cc1ccccc1
COC(=O)c1ccc(C)c(-n2c(C)nc(OCc3ccc(F)cc3F)c(Br)c2=O)c1
CNC(=O)c1ccc(C)c(-n2c(C)nc(OCc3ccc(F)cc3F)c(Br)c2=O)c1
